We go through ten compounds from ChEMBL document CHEMBL1142467, “A novel monoacylglycerol lipase inhibitor with analgesic and anti-inflammatory activity” (Bioorg Med Chem Lett, 2008).

The target in test [1] is T1, Monoglyceride lipase (Rattus norvegicus) (UniProt Q8R431).
T1 sequence (whole entry): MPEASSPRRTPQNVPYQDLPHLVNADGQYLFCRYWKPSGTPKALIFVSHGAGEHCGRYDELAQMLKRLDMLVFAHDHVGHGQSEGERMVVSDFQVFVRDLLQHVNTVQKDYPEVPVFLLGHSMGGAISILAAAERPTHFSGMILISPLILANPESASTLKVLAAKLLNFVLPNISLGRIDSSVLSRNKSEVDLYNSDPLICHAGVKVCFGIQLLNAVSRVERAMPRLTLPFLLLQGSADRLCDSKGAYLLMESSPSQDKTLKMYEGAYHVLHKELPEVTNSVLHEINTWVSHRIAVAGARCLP
Description: Inhibition of Sprague-Dawley rat MGL at 100 uM.

For test [2], the target named is T2, Fatty-acid amide hydrolase 1 (Rattus norvegicus) (UniProt P97612).
T2 sequence (whole entry): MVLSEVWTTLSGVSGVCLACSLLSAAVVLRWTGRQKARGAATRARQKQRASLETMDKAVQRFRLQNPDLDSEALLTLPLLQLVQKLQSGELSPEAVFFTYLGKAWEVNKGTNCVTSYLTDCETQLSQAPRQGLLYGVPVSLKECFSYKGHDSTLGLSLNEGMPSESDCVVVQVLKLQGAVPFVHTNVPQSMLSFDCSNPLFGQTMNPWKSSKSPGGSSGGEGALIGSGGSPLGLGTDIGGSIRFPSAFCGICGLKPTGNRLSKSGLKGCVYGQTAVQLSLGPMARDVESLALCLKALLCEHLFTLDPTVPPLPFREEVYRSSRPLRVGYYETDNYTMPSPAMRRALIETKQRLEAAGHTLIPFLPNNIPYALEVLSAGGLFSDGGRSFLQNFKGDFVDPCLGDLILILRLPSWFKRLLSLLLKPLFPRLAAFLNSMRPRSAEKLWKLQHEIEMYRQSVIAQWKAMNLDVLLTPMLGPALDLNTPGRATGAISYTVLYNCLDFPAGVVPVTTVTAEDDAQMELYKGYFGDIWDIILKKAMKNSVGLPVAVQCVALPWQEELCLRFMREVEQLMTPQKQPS
Description: Inhibition of Sprague-Dawley rat FAAH at 100 uM.

For test [3], the target named is T3, Monoglyceride lipase (Rattus norvegicus, UniProt Q8R431).
T3 sequence (Q8R431 whole entry): T1 sequence (whole entry)
Description: Inhibition of Sprague-Dawley rat MGL.

Test [4] concerns Rattus norvegicus. Description: Antiinflammatory activity against carrageenan-induced foot paw edema in rat at 0.01 mmol/kg, ip. It counts as functional. On the technique in general: In the carrageenan paw model, swelling and tenderness develop within hours.
Test [5] deals with Rattus norvegicus. Description: Antiinflammatory activity against carrageenan-induced foot paw edema in rat. In kind it is functional.
In test [6] the test system is Rattus norvegicus. Description: Analgesic activity in rat assessed as inhibition of acetic acid-induced writhing responses at 3.6 mg/kg, ip. In kind it is functional, organism-based. Further details: dose 3.6 mg/kg. A general note: In writhing tests, fewer writhes than in controls are read as antinociception.
The test system of test [7] is Rattus norvegicus. Description: Analgesic activity in rat assessed as inhibition of acetic acid-induced writhing responses at 36 mg/kg, ip. Also noted: dose 36 mg/kg. In kind it is functional, organism-based.

Calls of active or inactive are those of the source. No cut-off for these calls is given here.

A word on the inhibition: it is the change of the read-out against control, counted positive when it falls. Read a low inhibition as little suppression. For `CCCCCCCCCCCCCCC(=O)C(=O)NCCO`, the inhibition in test [1] stood at 27.5%; in test [2] it was 23.8%.
For `CCCCCCOc1ccc(CCCC[C@H](N)CN)cc1` the same measures were 25.9% and 30.9%.
As usually defined, the Ki is a dissociation constant, usually derived from enzyme kinetics or from competition with a known ligand. The low end stands for tighter binding, the high end for weaker binding. Consider `CCCCCCCCCCCCCCC(N)CN` (stereo not given), for which the inhibition turned out to be 30.3% in test [1] and 31.2% in test [2]. The compound further registered a Ki in test [3] of 58.7 µM.
By inhibition in vivo is commonly meant the drop in the measured response relative to a control, in per cent. A low value points to little suppression. `COc1ccc2c(c1)c(CC(=O)O)c(C)n2C(=O)c1ccc(Cl)cc1` [INDOMETHACIN] returned an inhibition in vivo at 10 µmol/kg in test [4] of 47%.
On to `CCCCCCCC/C=C\CCCCCC[C@@H](N)C(N)=O`, for which the inhibition in test [1] came to 0%; in test [2] it was 24%.
On the same counts, the results for `CCCCCCCCCCCCCC[C@@H](N)CO` are 30% and 31.3%.
For orientation: ED50 means the midpoint of the dose-response relation. A higher ED50 goes with weaker potency. `CCCCCCCC/C=C\CCCCCC[C@H](N)CN` displayed an ED50 in test [5] of 10 µmol/kg. The inhibition in test [1] was found to be 49.9%; in test [2], 4.9%. Moreover, in test [6], the result was Active. Besides, the Ki in test [3] was determined as 21.8 µM.
On to `CCCCCCCC/C=C\CCCCCC[C@@H](N)CN`, for which the inhibition in test [1] stood at 42.2%; in test [2], 25.9%. This compound also registered a Ki in test [3] of 39 µM. For the same compound, the result in test [7] was Active.
With `NC[C@@H](N)CCCCc1ccccc1`, the inhibition in test [1] and in test [2] was 0% throughout.
Regarding `CCCCCCCCCCCCCC[C@H](N)CO`, the inhibition was 31.5% in test [1] and 33.6% in test [2].
